# Laboratory results published in PubChem BioAssay AID256 (DTP/NCI, 2004).
# Values joined by “and” are separate entries in the source; they are usually repeats but may differ in a detail not shown here. Equal entries are not always repeated. Inconclusive results and toxic doses are left out.
# System: CD2F1 mice, L1210 leukemia ip, survival T/C
# Assay: NCI In Vivo Anticancer Drug Screen. Data for tumor model L1210 Leukemia (intraperitoneal) in CD2F1 (CDF1) mice
# Conditions: higher = longer survival
# Procedure, shortened: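 Read-out first: treated-group measurement over vehicle-control measurement, expressed as a ratio. Animals bore a transplanted tumor line and were dosed with compound or vehicle.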
# [1] = endpoint: mean survival time, dose: 100.0 mg/kg/injection, schedule: Q04DX003 (ip), vehicle: saline
# [2] = endpoint: mean survival time, dose: 200.0 mg/kg/injection, schedule: Q04DX003 (ip), vehicle: saline
# [3] = endpoint: mean survival time, dose: 400.0 mg/kg/injection, schedule: Q04DX003 (ip), vehicle: saline
# [4] = endpoint: mean survival time, dose: 100.0 mg/kg/injection, schedule: Q01DX001 (ip), vehicle: saline with Tween-80
# [5] = endpoint: mean survival time, dose: 400.0 mg/kg/injection, schedule: Q01DX001 (ip), vehicle: saline with Tween-80
# [6] = endpoint: mean survival time, dose: 100.0 mg/kg/injection, schedule: Q01DX001 (ip), vehicle: saline
# [7] = endpoint: mean survival time, dose: 200.0 mg/kg/injection, schedule: Q01DX001 (ip), vehicle: saline
# [8] = endpoint: mean survival time, dose: 400.0 mg/kg/injection, schedule: Q01DX001 (ip), vehicle: saline
# [9] = endpoint: median survival time, dose: 200.0 mg/kg/injection, schedule: Q01DX005 (ip), vehicle: saline with Tween-80
# [10] = endpoint: mean survival time, dose: 100.0 mg/kg/injection, schedule: Q04DX003 (ip), vehicle: saline with Tween-80
# [11] = endpoint: mean survival time, dose: 200.0 mg/kg/injection, schedule: Q04DX003 (ip), vehicle: saline with Tween-80
# [12] = endpoint: mean survival time, dose: 400.0 mg/kg/injection, schedule: Q04DX003 (ip), vehicle: saline with Tween-80
# [13] = endpoint: mean survival time, dose: 100.0 mg/kg/injection, schedule: Q01DX009 (ip), vehicle: saline with Tween-80
# [14] = endpoint: mean survival time, dose: 200.0 mg/kg/injection, schedule: Q01DX009 (ip), vehicle: saline with Tween-80
# [15] = endpoint: mean survival time, dose: 400.0 mg/kg/injection, schedule: Q01DX009 (ip), vehicle: saline with Tween-80
# [16] = endpoint: mean survival time, dose: 100.0 mg/kg/injection, schedule: Q04DX002 (ip), vehicle: saline
# [17] = endpoint: mean survival time, dose: 200.0 mg/kg/injection, schedule: Q04DX002 (ip), vehicle: saline
structure (smiles),measurement,setting,value
O=C(O)CCCc1ccc(Cl)cc1,T/C,[1],106 % of control
same,T/C,[2],106 % of control
same,T/C,[3],98 % of control
O=C(CC(SCCN1CCOCC1)c1ccc([N+](=O)[O-])cc1)c1ccccc1 (stereo not drawn),T/C,"endpoint: mean survival time, dose: 100.0 mg/kg/injection, schedule: Q01DX001 (ip), vehicle: Klucel (hydroxypropylcellulose) (HPC)",104 % of control
same,T/C,"endpoint: mean survival time, dose: 200.0 mg/kg/injection, schedule: Q01DX001 (ip), vehicle: Klucel (hydroxypropylcellulose) (HPC)",96 % of control
same,T/C,"endpoint: mean survival time, dose: 400.0 mg/kg/injection, schedule: Q01DX001 (ip), vehicle: Klucel (hydroxypropylcellulose) (HPC)",107 % of control
Brc1ccc2[nH]c3c(c2c1)CSc1ccccc1-3,T/C,"endpoint: mean survival time, dose: 100.0 mg/kg/injection, schedule: Q01DX009 (ip), vehicle: Klucel (hydroxypropylcellulose) (HPC)",104 % of control
same,T/C,"endpoint: mean survival time, dose: 200.0 mg/kg/injection, schedule: Q01DX009 (ip), vehicle: Klucel (hydroxypropylcellulose) (HPC)",108 % of control
same,T/C,"endpoint: mean survival time, dose: 400.0 mg/kg/injection, schedule: Q01DX009 (ip), vehicle: Klucel (hydroxypropylcellulose) (HPC)",112 % of control
O=C(O)/C=C/C=C/C(=O)O,T/C,[4],102 % of control and 101 % of control
same,T/C,"endpoint: mean survival time, dose: 200.0 mg/kg/injection, schedule: Q01DX001 (ip), vehicle: saline with Tween-80",104 % of control and 93 % of control
same,T/C,[5],100 % of control and 101 % of control
CCCCCCCCCCCC#N,T/C,"endpoint: mean survival time, dose: 100.0 mg/kg/injection, schedule: Q04DX003 (ip), vehicle: Klucel (hydroxypropylcellulose) (HPC)",102 % of control
same,T/C,"endpoint: mean survival time, dose: 200.0 mg/kg/injection, schedule: Q04DX003 (ip), vehicle: Klucel (hydroxypropylcellulose) (HPC)",97 % of control
same,T/C,"endpoint: mean survival time, dose: 400.0 mg/kg/injection, schedule: Q04DX003 (ip), vehicle: Klucel (hydroxypropylcellulose) (HPC)",104 % of control
O=C1OCC2C(=O)OCC12 (stereo not drawn),T/C,"endpoint: mean survival time, dose: 50.0 mg/kg/injection, schedule: Q01DX001 (ip), vehicle: saline",107 % of control
same,T/C,[6],101 % of control
same,T/C,[7],107 % of control
same,T/C,[8],109 % of control
N#CCCCC1(CCCC#N)OCCO1,T/C,"endpoint: mean survival time, dose: 50.0 mg/kg/injection, schedule: Q04DX003 (ip), vehicle: saline",100 % of control
same,T/C,[1],102 % of control
same,T/C,[2],107 % of control
COc1cc(C(CC(C)=O)c2cc3c(cc2OC(C)=O)OCO3)cc(OC)c1OC (stereo not drawn) (tested in a mixture with another compound),T/C,"endpoint: median survival time, dose: 15.0 mg/kg/injection, schedule: Q01DX005 (ip), vehicle: saline with Tween-80",103 % of control
same,T/C,"endpoint: median survival time, dose: 30.0 mg/kg/injection, schedule: Q01DX005 (ip), vehicle: saline with Tween-80",101 % of control
same,T/C,"endpoint: median survival time, dose: 43.2 mg/kg/injection, schedule: Q01DX005 (ip), vehicle: saline with Tween-80",105 % of control
same,T/C,"endpoint: median survival time, dose: 60.0 mg/kg/injection, schedule: Q01DX005 (ip), vehicle: saline with Tween-80",114 % of control
same,T/C,"endpoint: median survival time, dose: 72.0 mg/kg/injection, schedule: Q01DX005 (ip), vehicle: saline with Tween-80",113 % of control and 110 % of control
same,T/C,[9],162 % of control and 168 % of control
same,T/C,"endpoint: median survival time, dose: 240.0 mg/kg/injection, schedule: Q01DX005 (ip), vehicle: saline with Tween-80",103 % of control
Cc1nc2c(ncn2C2OC3COP(=O)(O)OC3C2O)c2nccn12 (stereo not drawn),T/C,"endpoint: mean survival time, dose: 12.5 mg/kg/injection, schedule: Q01DX005 (ip), vehicle: water",95 % of control
same,T/C,"endpoint: mean survival time, dose: 25.0 mg/kg/injection, schedule: Q01DX005 (ip), vehicle: water",100 % of control
same,T/C,"endpoint: mean survival time, dose: 50.0 mg/kg/injection, schedule: Q01DX005 (ip), vehicle: water",90 % of control
same,T/C,"endpoint: mean survival time, dose: 100.0 mg/kg/injection, schedule: Q01DX005 (ip), vehicle: water",106 % of control
Cc1cc(C)c(NC(=O)c2ccccc2Cl)c(C)c1,T/C,[10],97 % of control
same,T/C,[11],110 % of control
same,T/C,[12],97 % of control
O=C(CCCl)OCCCl,T/C,[10],102 % of control
same,T/C,[11],92 % of control
CN(C)CC(=O)Nc1cc(Cl)ccc1Oc1ccc(Cl)cc1,T/C,[13],103 % of control
same,T/C,[14],100 % of control
same,T/C,[15],105 % of control
CC(OC1OC(C(=O)O)C(O)C(O)C1O)c1ccccc1 (stereo not drawn),T/C,[1],98 % of control
same,T/C,[2],98 % of control
same,T/C,[3],93 % of control
COC(CN(CC(OC)OC)c1ncnc2nc[nH]c12)OC,T/C,"endpoint: mean survival time, dose: 25.0 mg/kg/injection, schedule: Q01DX005 (ip), vehicle: other",93 % of control
same,T/C,"endpoint: mean survival time, dose: 50.0 mg/kg/injection, schedule: Q01DX005 (ip), vehicle: other",91 % of control
same,T/C,"endpoint: mean survival time, dose: 100.0 mg/kg/injection, schedule: Q01DX005 (ip), vehicle: other",98 % of control
same,T/C,"endpoint: mean survival time, dose: 200.0 mg/kg/injection, schedule: Q01DX005 (ip), vehicle: other",98 % of control
same,T/C,"endpoint: mean survival time, dose: 400.0 mg/kg/injection, schedule: Q01DX005 (ip), vehicle: other",96 % of control
Cc1cccc(CC(C)O)n1 (stereo not drawn),T/C,[6],96 % of control
same,T/C,"endpoint: mean survival time, dose: 100.0 mg/kg/injection, schedule: Q04DX002 (ip), vehicle: saline with Tween-80",97 % of control
same,T/C,[16],93 % of control
same,T/C,[10],96 % of control and 97 % of control
same,T/C,[7],94 % of control
same,T/C,"endpoint: mean survival time, dose: 200.0 mg/kg/injection, schedule: Q04DX002 (ip), vehicle: saline with Tween-80",106 % of control
same,T/C,[17],96 % of control
same,T/C,[11],86 % of control and 112 % of control
same,T/C,[8],98 % of control
same,T/C,"endpoint: mean survival time, dose: 400.0 mg/kg/injection, schedule: Q04DX002 (ip), vehicle: saline with Tween-80",93 % of control
same,T/C,"endpoint: mean survival time, dose: 400.0 mg/kg/injection, schedule: Q04DX002 (ip), vehicle: saline",93 % of control
same,T/C,[12],97 % of control and 106 % of control
CN1CC2C(O)CCC1CC2O (stereo not drawn),T/C,[16],105 % of control
same,T/C,[17],90 % of control
O=C1Nc2ccc3c4c(ccc1c24)CC3,T/C,[4],105 % of control
same,T/C,[5],94 % of control
COc1ccc(C(O)c2ccccc2S(=O)(=O)N(C)C)cc1 (stereo not drawn),T/C,"endpoint: mean survival time, dose: 100.0 mg/kg/injection, schedule: Q01DX009 (ip), vehicle: saline sonified",105 % of control
same,T/C,"endpoint: mean survival time, dose: 200.0 mg/kg/injection, schedule: Q01DX009 (ip), vehicle: saline sonified",96 % of control
same,T/C,"endpoint: mean survival time, dose: 400.0 mg/kg/injection, schedule: Q01DX009 (ip), vehicle: saline sonified",93 % of control
CC1(C)OC2C(/C=C3/CC(=O)NC3=O)OC(n3ccc(=O)[nH]c3=O)C2O1 (stereo not drawn),T/C,"endpoint: mean survival time, dose: 12.5 mg/kg/injection, schedule: Q01DX005 (ip), vehicle: distilled water + Tween-80",100 % of control
same,T/C,"endpoint: mean survival time, dose: 25.0 mg/kg/injection, schedule: Q01DX005 (ip), vehicle: distilled water + Tween-80",100 % of control
same,T/C,"endpoint: mean survival time, dose: 50.0 mg/kg/injection, schedule: Q01DX005 (ip), vehicle: distilled water + Tween-80",103 % of control
same,T/C,"endpoint: mean survival time, dose: 100.0 mg/kg/injection, schedule: Q01DX005 (ip), vehicle: distilled water + Tween-80",100 % of control
same,T/C,"endpoint: mean survival time, dose: 200.0 mg/kg/injection, schedule: Q01DX005 (ip), vehicle: distilled water + Tween-80",103 % of control
CC(CCl)C(C#N)(c1ccccc1)c1ccccc1 (stereo not drawn),T/C,"endpoint: mean survival time, dose: 50.0 mg/kg/injection, schedule: Q01DX009 (ip), vehicle: saline with Tween-80",92 % of control
same,T/C,[13],95 % of control
same,T/C,[10],101 % of control
same,T/C,[14],95 % of control
same,T/C,[11],101 % of control
NCc1ccc(-c2nc3ncnc(N)c3[nH]2)cc1,T/C,"endpoint: mean survival time, dose: 3.13 mg/kg/injection, schedule: Q01DX001 (ip), vehicle: saline with Tween-80",108 % of control
same,T/C,"endpoint: mean survival time, dose: 6.25 mg/kg/injection, schedule: Q01DX001 (ip), vehicle: saline with Tween-80",102 % of control
same,T/C,"endpoint: mean survival time, dose: 12.5 mg/kg/injection, schedule: Q01DX001 (ip), vehicle: saline with Tween-80",100 % of control and 110 % of control
same,T/C,"endpoint: mean survival time, dose: 25.0 mg/kg/injection, schedule: Q01DX001 (ip), vehicle: saline with Tween-80",102 % of control
same,T/C,"endpoint: mean survival time, dose: 50.0 mg/kg/injection, schedule: Q01DX001 (ip), vehicle: saline with Tween-80",109 % of control
same,T/C,[4],106 % of control and 110 % of control
O=C(COc1ccccc1)N/N=C/c1cccc([N+](=O)[O-])c1,T/C,[14],89 % of control
same,T/C,[15],94 % of control
CC(C)(O)C(=O)N/N=C/c1ccc(Cl)cc1,T/C,[13],90 % of control
same,T/C,[14],90 % of control
CSc1nc(NC2OCC(O)C(O)C2O)c(C(C)=O)c(=O)n1C (stereo not drawn),T/C,"endpoint: median survival time, dose: 12.5 mg/kg/injection, schedule: Q01DX005 (ip), vehicle: saline with Tween-80",97 % of control
same,T/C,"endpoint: median survival time, dose: 25.0 mg/kg/injection, schedule: Q01DX005 (ip), vehicle: saline with Tween-80",98 % of control
same,T/C,"endpoint: median survival time, dose: 50.0 mg/kg/injection, schedule: Q01DX005 (ip), vehicle: saline with Tween-80",96 % of control
same,T/C,"endpoint: median survival time, dose: 100.0 mg/kg/injection, schedule: Q01DX005 (ip), vehicle: saline with Tween-80",89 % of control
same,T/C,[9],94 % of control
